Test results from patent publication US9434711B2 (Janssen Pharmaceutica, NV, priority 2007, dated 2016).
pIC50: −log10 of the molar value. Like-named read-outs stand apart in the source and are kept apart here.

Molecular target: canine TRPM8 (Canis lupus familiaris, UniProt Q1A7N1)
Experiment: In Vitro Canine TRPM8 Functional Assay (Ca2+ fluorescence, icilin activation)
Type: cell-based
Settings: for pIC50: read-out: IC50; for inhibition at 0.2 µM: read-out: % Inh @ 0.2; for inhibition at 0.5 µM: compound at 0.5 μM, read-out: % Inh @ 0.5
Procedure: The functional activity of compounds of the formula (I) was determined by measuring changes in intracellular calcium concentration using a Ca^2+-sensitive fluorescent dye. The changes in fluorescent signal were monitored by a fluorescence plate reader, either a FLIPR™ (Molecular Devices) or FDSS (Hamamatsu).
At 24 hrs prior to assay, HEK293 cells stably expressing canine TRPM8 were seeded in culture medium in black wall, clear-base poly-D-lysine coated 384-well plates (BD Biosciences, NJ, USA) and grown overnight in 5% CO2 at 37° C. On assay day, growth media was removed and cells were loaded with Calcium 3 Dye (Molecular Devices) for 35 min at 37° C., under 5% CO2 and then for 25 min at room temperature and atmosphere. Subsequently, cells were tested for agonist-induced increases in intracellular Ca^2+ levels using FLIPR™ or FDSS. Cells were challenged with a compound of the Formula (I) (at varying concentrations) and intracellular Ca^2+ was measured for 5 min prior to the addition of icilin to all wells to achieve a final concentration that produces approximately an 80% maximal response. EC50 or IC50 values for compounds of the present invention were determined from eight-point dose-response studies. Curves were generated using the average of quadruplicate wells for each data point.

[1] = HEK293 cells stably expressing canine TRPM8, icilin activation, eight-point dose-response
[2] = compound at 0.2 μM, canine TRPM8, icilin activation
[3] = canine TRPM8, icilin activation

Chain of canine TRPM8 (Q1A7N1 1-1104): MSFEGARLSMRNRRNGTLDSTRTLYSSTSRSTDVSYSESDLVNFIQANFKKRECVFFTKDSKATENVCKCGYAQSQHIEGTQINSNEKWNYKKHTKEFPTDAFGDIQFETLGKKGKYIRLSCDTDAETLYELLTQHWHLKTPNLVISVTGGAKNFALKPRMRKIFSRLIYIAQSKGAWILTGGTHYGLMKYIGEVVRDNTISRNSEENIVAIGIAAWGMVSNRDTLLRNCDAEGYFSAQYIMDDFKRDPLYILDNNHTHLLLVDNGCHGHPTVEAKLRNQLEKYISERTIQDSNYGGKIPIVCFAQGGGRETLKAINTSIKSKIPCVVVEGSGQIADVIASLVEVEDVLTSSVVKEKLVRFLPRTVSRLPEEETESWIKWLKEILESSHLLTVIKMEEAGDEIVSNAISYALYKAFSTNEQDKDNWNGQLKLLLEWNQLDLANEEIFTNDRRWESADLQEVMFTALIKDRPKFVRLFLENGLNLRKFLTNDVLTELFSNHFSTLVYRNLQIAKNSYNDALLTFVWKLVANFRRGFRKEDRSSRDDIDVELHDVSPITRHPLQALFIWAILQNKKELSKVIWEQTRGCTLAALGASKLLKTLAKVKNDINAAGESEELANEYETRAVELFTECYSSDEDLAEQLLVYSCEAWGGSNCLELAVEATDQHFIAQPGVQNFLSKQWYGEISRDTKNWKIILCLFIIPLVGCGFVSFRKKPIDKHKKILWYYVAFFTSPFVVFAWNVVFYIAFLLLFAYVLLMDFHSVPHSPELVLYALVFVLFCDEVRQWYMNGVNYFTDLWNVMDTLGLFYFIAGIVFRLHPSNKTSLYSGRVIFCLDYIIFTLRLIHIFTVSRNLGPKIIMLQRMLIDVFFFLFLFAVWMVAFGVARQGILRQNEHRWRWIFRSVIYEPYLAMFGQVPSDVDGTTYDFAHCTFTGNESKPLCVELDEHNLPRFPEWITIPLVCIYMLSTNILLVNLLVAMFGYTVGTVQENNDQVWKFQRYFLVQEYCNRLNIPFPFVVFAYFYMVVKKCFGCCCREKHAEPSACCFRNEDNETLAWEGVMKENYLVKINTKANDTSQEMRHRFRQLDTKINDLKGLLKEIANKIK

| pIC50 [1] | inhibition at 0.2 µM [2] | Compound | further results |
| --- | --- | --- | --- |
| – | 48% | CS(=O)(=O)CS(=O)(=O)N(Cc1ccc(F)c(C(F)(F)F)c1)c1sc2ccccc2c1Br [Compound 350, N-(3-Bromo-benzo[b]thiophen-2-yl)-N-(4-fluoro-3-trifluoromethyl-benzyl)-C-methanesulfonyl-methanesulfonamide] | – |
| 6.77 | – | CN(C)CCN(c1sc2ccccc2c1Cl)S(=O)(=O)c1ccccc1 [Compound 87, N-(3-Chloro-benzo[b]thiophen-2-yl)-N-(2-dimethylamino-ethyl)-benzenesulfonamide] | inhibition at 0.5 µM [3]: 94% |
| – | – | N-(3-Methyl-benzo[b]thiophen-2-yl)-N-(cyclopropyl-ethyl)-4-morpholino-3-pyridyl-sulfonamide [Compound 798] | % Inh @ 0.2 (μM) (0.2 μM compound, HEK293 cells stably expressing canine TRPM8, icilin activation): 102%; pIC50 (HEK293 cells stably expressing canine TRPM8, icilin activation, average of two or more determinations): 7.44 |
| 7.85 | 103% | Cc1c(N(CCC2CC2)S(=O)(=O)c2ccc(-c3nsc(=O)[nH]3)cc2)sc2ccccc12 [Compound 641, N-(3-Methyl-benzo[b]thiophen-2-yl)-N-(cyclopropyl-ethyl)-4-(5-oxo-4,5-dihydro-[1,2,4]thiadiazol-3-yl)-benzenesulfonamide] | – |
| 8.22 | 100% | O=S(=O)(c1ccsc1)N(Cc1ccc(F)c(C(F)(F)F)c1)c1sc2ccccc2c1Cl [Compound 187, N-(3-Chloro-benzo[b]thiophen-2-yl)-N-(4-fluoro-3-trifluoromethyl-benzyl)-thien-3-yl-sulfonamide] | – |
| 7.74 | 99% | COCCN(c1sc2ccccc2c1C)S(=O)(=O)c1ccccc1 [Compound 99, N-(2-Methoxy-ethyl)-N-(3-methyl-benzo[b]thiophen-2-yl)-benzenesulfonamide] | – |
| 7.52 | 101% | COC(=O)CN(c1sc2ccccc2c1C)S(=O)(=O)c1ccccc1 [Compound 101, N-(3-Methyl-benzo[b]thiophen-2-yl)-N-(carbomethoxy-methyl)-benzenesulfonamide] | – |
| 7.77 | 90% | CCCCN(C1=C(OC)c2ccccc2S1(=O)=O)S(=O)(=O)c1ccc(C(=O)O)cc1 [Compound 434, N-(Butyl)-N-(3-methoxy-1,1-dioxo-1H-benzo[b]thiophen-2-yl)-4-carboxy-benzenesulfonamide] | – |
| 7.41 | 91% | O=C(O)c1ccc(S(=O)(=O)N(CCN2CCOCC2)c2sc3ccccc3c2Br)cc1 [Compound 277, N-(3-Bromo-benzo[b]thiophen-2-yl)-N-(2-morpholin-4-yl-ethyl)-4-carboxy-benzenesulfonamide] | – |
| – | 55% | CC1=C(N(Cc2ccc(F)c(C(F)(F)F)c2)S(=O)(=O)c2ccc(C(=O)O)cc2)S(=O)(=O)c2ccccc21 [Compound 634, N-(4-Fluoro-3-trifluoromethyl-benzyl)-N-(3-methyl-1,1-dioxo-benzo[b]thiophen-2-yl)-4-carboxy-benzenesulfonamide] | – |
| 7.17 | 93.3% | CS(=O)(=O)Nc1c(Cl)cc(S(=O)(=O)N(CCC(F)(F)F)c2sc3ccccc3c2Cl)cc1Cl [Compound 681, 3,5-Dichloro-N-(3-chloro-benzo[b]thiophen-2-yl)-4-methanesulfonylamino-N-(3,3,3-trifluoro-propyl)-benzenesulfonamide] | – |
| 8.70 | 99% | CCS(=O)(=O)N(Cc1ccc(F)c(F)c1)c1sc2ccccc2c1C(C)(C)O [Compound 226, N-(3,4-Difluoro-benzyl)-N-[3-(1-hydroxy-1-methyl-ethyl)-benzo[b]thiophen-2-yl]-ethanesulfonamide] | – |
| – | 13% | Cc1c(N(CCC(F)(F)F)S(=O)(=O)CCC(=O)O)sc2ccccc12 [Compound 604, N-(3-Methyl-benzo[b]thiophen-2-yl)-N-(3,3,3-trifluoro-propyl)-2-carboxy-ethanesulfonamide] | – |
| 7.43 | 79% | COC(=O)c1cccc(S(=O)(=O)N(Cc2ccc(F)c(C(F)(F)F)c2)c2sc3cc(F)ccc3c2C)c1 [Compound 375, N-(6-Fluoro-3-methyl-benzo[b]thiophen-2-yl)-N-(4-fluoro-3-trifluoromethyl-benzyl)-3-carbomethoxy-benzenesulfonamide] | – |
| – | 20% | CN1CCN(C2=C(N(CCC3CC3)S(=O)(=O)c3ccccc3)S(=O)(=O)c3ccccc32)CC1 [Compound 645, N-(2-Cyclopropyl-ethyl)-N-[3-(4-methyl-piperazin-1-yl)-1,1-dioxo-1H-1λ^6-benzo[b]thiophen-2-yl]-benzenesulfonamide] | – |
| – | 42% | CCCCN(C1=Cc2ccccc2S1(=O)=O)S(=O)(=O)c1ccc(C(=O)O)cc1 [Compound 432, N-(Butyl)-N-(1,1-dioxo-1H-benzo[b]thiophen-2-yl)-4-carboxy-benzenesulfonamide] | – |
| – | 18% | O=C(O)c1ccccc1S(=O)(=O)N(Cc1ccc(F)c(C(F)(F)F)c1)c1sc2ccccc2c1Br [Compound 298, N-(3-Bromo-benzo[b]thiophen-2-yl)-N-(4-fluoro-3-trifluoromethyl-benzyl)-2-carboxy-benzenesulfonamide] | – |
| 7.85 | – | CCS(=O)(=O)N(Cc1ccc(F)c(C(F)(F)F)c1)c1sc2ccccc2c1Br [Compound 183, N-(3-Bromo-benzo[b]thiophen-2-yl)-N-(4-fluoro-3-trifluoromethyl-benzyl)-ethanesulfonamide] | inhibition at 0.5 µM [3]: 99% |
| 7.92 | – | Cc1c(N(Cc2ccc(F)c(F)c2)S(=O)(=O)c2ccc3ncccc3c2)sc2ccccc12 [Compound 30, N-(3,4-Difluoro-benzyl)-N-(3-methyl-benzo[b]thiophen-2-yl)-quinoline-6-sulfonamide] | inhibition at 0.5 µM [3]: 100% |
| 7.80 | 102% | CNc1ccc(S(=O)(=O)N(CCC2CC2)c2sc3ccccc3c2Cl)cc1Cl [Compound 691, 3-Chloro-N-(3-chloro-benzo[b]thiophen-2-yl)-N-(2-cyclopropyl-ethyl)-4-methylamino-benzenesulfonamide] | – |
| 8.77 | 95% | CC(O)c1c(N(Cc2ccc(F)c(F)c2)S(=O)(=O)c2ccccc2)sc2ccccc12 (stereo not shown) [Compound 222, N-(3,4-Difluoro-benzyl)-N-[3-(1-hydroxy-ethyl)-benzo[b]thiophen-2-yl]-benzenesulfonamide] | – |
| 8.14 | 101% | CNc1ccc(S(=O)(=O)N(CCC2CC2)c2sc3ccccc3c2Br)cc1Br [Compound 692, 3-Bromo-N-(3-bromo-benzo[b]thiophen-2-yl)-N-(2-cyclopropyl-ethyl)-4-methylamino-benzenesulfonamide] | – |
| 7.01 | – | CCCCS(=O)(=O)N(Cc1ccc(F)c(F)c1)c1cc2ccccc2s1 [Compound 37, N-(Benzo[b]thiophen-2-yl)-N-(3,4-difluoro-benzyl)-butane-1-sulfonamide] | inhibition at 0.5 µM [3]: 96% |
| – | – | O=C1NCCN1CCN(c1sc2ccccc2c1Br)S(=O)(=O)c1ccccc1 [Compound 240, N-(3-Bromo-benzo[b]thiophen-2-yl)-N-[2-(2-oxo-imidazolidin-1-yl)-ethyl]-benzenesulfonamide] | inhibition at 0.5 µM [3]: 43% |
| 7.17 | 97% | O=C(O)c1ccc(S(=O)(=O)N(CCCC(F)(F)F)c2cc3ccccc3s2)cc1 [Compound 451, N-(Benzo[b]thiophen-2-yl)-N-(4,4,4-trifluoro-butyl)-4-carboxy-benzenesulfonamide] | – |
| – | 61% | CS(=O)(=O)Nc1ccc(S(=O)(=O)N(CCCCC(F)(F)F)c2cc3ccccc3s2)cc1 [Compound 678, N-(Benzo[b]thiophen-2-yl)-4-methanesulfonylamino-N-(5,5,5-trifluoro-pentyl)-benzenesulfonamide] | – |
| – | 24% | O=C1CC[C@@H](CN(c2sc3ccccc3c2Br)S(=O)(=O)c2ccccc2)N1 [Compound 259, (S)—N-(3-Bromo-benzo[b]thiophen-2-yl)-N-(5-oxo-pyrrolidin-2-ylmethyl)-benzenesulfonamide] | – |
| – | 63% | CNC1=C(N(CCC2CC2)S(=O)(=O)c2ccccc2)S(=O)(=O)c2ccccc21 [Compound 644, N-(2-Cyclopropylethyl)-N-(3-methylamino-1,1-dioxo-1H-benzo[b]thiophen-2-yl)-benzenesulfonamide] | – |
| 7.32 | 99.3% | CCCCN(c1cc2ccccc2s1)S(=O)(=O)c1ccc(C(=O)O)cc1 [Compound 556, N-(Benzo[b]thiophen-2-yl)-N-(butyl)-4-carboxy-benzenesulfonamide] | – |

| Compound | pIC50 [1] | inhibition at 0.2 µM [2] | further results |
| --- | --- | --- | --- |
| O=S1NC(c2ccc(S(=O)(=O)N(CCCCC(F)(F)F)c3sc4ccccc4c3Cl)cc2)=NO1 (stereo not shown) [Compound 582, N-(3-Chloro-benzo[b]thiophen-2-yl)-N-(5,5,5-trifluoro-pentyl)-4-(3H-[1,2,3,5]oxathiadiazole-2-oxide)-benzenesulfonamide] | 7.30 | – | % Inh @ 0.2 (μM) [2]: 96% |
| CC(C)(C)OCCCN(c1sc2ccccc2c1Br)S(=O)(=O)c1ccc(C(=O)O)cc1 [Compound 397, N-(3-Bromo-benzo[b]thiophen-2-yl)-N-(3-tert-butoxypropyl)-4-carboxy-benzenesulfonamide] | 8.10 | 95% | – |
